Source: US20180237362A1, “NOVEL POLYGODIAL ANALOGS FOR THE TREATMENT OF CANCER AND OTHER PROLIFERATIVE DISEASES” (THE BOARD OF REGENTS OF THE UNIVERSITY OF TAXAS SYSTEM, priority 2015, published 2018)

Columns and labels:
[1] = target: T1, vanilloid site of TRPV1 receptor from rats spinal cord membranes (Rattus norvegicus, UniProt O35433); test: [3H]-resiniferatoxin binding assay; details: 2 nM [3H]-RTX
T1 construct: from tissue; host or cells: rat spinal cord membranes
Protocol: To evaluate the possible affinity of different analogues to the vanilloid site of TRPV1, a [^3H]-resiniferatoxin ([^3H]-RTX) binding assay was performed as previously described (Galli et al. 2004 and Lee et al., 2006). Briefly, rats spinal cord were homogenized in buffer A (pH 7.4, 5 mM KCl, 5.8 mM NaCl, 2 mM MgCl2, 0.75 mM CaCl2, 137 mM sucrose, and 10 mM HEPES) and centrifuged for 10 minutes at 1000 g at 4° C. and the supernatant was further centrifuged for 30 min at 35,000 g at 4° C. The resulting pellets were than resuspended in buffer A and frozen until assayed. The binding reaction was performed in a final volume of 500 μL, containing buffer A (plus 0.25 mg/mL bovine serum albumin, BSA), membranes (0.5 mg/mL), and 2 nM [^3H]-RTX in the presence or absence of analogues of 1 (10 μM). For the measurement of the nonspecific binding, 100 μM nonradioactive RTX were included used. The reaction was started by incubating tubes at 37° C. during 60 minutes, and stopped by transferring the tubes to ice bath and adding 100 μg of bovine α1-acid glycoprotein (to reduce nonspecific binding). […] The pellet was used to quantify the scintillation counting. The specific binding was calculated as the difference of the total and nonspecific binding and the results were measured as % of specific binding.

[2] = test system: MDA-MB-231 breast cancer cells expressing TRPV1; test: Intracellular Ca2+ measurements, MDA-MB-231; format: cell-based, human; details: 1 at 80 μM, 5 at 20 μM; Fura-2
Protocol: Human mammary carcinoma MCF-7 (ATCC HTB22) cells were cultured in RPMI supplemented with 10% FBS. The U87 cells (ATCC HTB-14) were cultured in DMEM culture medium, while the A549 cells (DSMZ ACC107) were cultured in RPMI culture medium supplemented with 10% heat-inactivated FBS. The GBM Hs683 (ATCC HTB-138) cells were cultivated in DMEM supplemented with 10% FBS. The human uterine sarcoma MES-SA (ATCC CRL1966) and MES-SA/D×5 cells were cultured in RPMI-1640 medium supplemented with 10% FBS with MES SA/D×5 maintained in the presence of 500 nM Doxorubicin (Sigma). SKMEL-28 cells (ATCC HTB72) and U373 GBM cells (ECACC 08061901) were cultured in RPMI culture medium supplemented with 10% heat-inactivated FBS. Cell culture media were supplemented with 4 mM glutamine (Lonza code BE17-605E), 100 μg/mL gentamicin (Lonza code 17-5182), and penicillin-streptomycin (200 units/ml and 200 μg/ml) (Lonza code 17-602E). […]
Intracellular Ca^2+ measurements. Cells were grown on glass coverslips for fluorescence imaging. The cytosolic calcium was measured using Fura-2-loaded cells. […] Fluorescence was excited at 350 and 380 nm alternately using a monochromator (Polychrome IV; TILL Photonics, Planegg, Germany), and captured by a Cool SNAP HQ camera (Princeton Instruments, France) after filtration through a long-pass filter (510 nm). […]

[3] = test system: U373 human glioma cell line; test: Quantitative videomicroscopy, U373; format: cell-based; details: at GI50 concentrations (Table 1)
Protocol: FIG. 8. In vitro videomicroscopic analysis of the anticancer effects of 1 and its C12-Wittig derivatives 5 and 13. The U373 human glioma cell line was treated with polygodial, 5 and 13 at their mean GI50 concentrations (Table 1) or left untreated. Videomicroscopy enabled taking pictures of the culture field every 4 minutes. The experiment was conducted once in triplicate. While the morphology of cells treated with 1 was fixed over time, 5 and 13 exerted cytostatic effects on U373 cells.
In an effort to gain insight into possible mechanisms associated with antiproliferative properties of 1 and the C12-Wittig derivatives, the morphological changes in cells treated with these compounds were studied with computer-assisted phase-contrast microscopy (Luchetti et al., 2012) (quantitative videomicroscopy).

[4] = target: T2, CHO cells that overexpress TRPV1 (CHO-TRPV1) (Homo sapiens, UniProt Q8NER1); test: Calcium imaging, CHO-TRPV1; format: cell-based; details: for TRPV1 activation (calcium influx), CHO-TRPV1: polygodial 80 μM, P10 4 μM, P3 50 μM
T2 construct: expressed in transfected cells; host or cells: CHO cells
T2 sequence (Q8NER1 whole entry): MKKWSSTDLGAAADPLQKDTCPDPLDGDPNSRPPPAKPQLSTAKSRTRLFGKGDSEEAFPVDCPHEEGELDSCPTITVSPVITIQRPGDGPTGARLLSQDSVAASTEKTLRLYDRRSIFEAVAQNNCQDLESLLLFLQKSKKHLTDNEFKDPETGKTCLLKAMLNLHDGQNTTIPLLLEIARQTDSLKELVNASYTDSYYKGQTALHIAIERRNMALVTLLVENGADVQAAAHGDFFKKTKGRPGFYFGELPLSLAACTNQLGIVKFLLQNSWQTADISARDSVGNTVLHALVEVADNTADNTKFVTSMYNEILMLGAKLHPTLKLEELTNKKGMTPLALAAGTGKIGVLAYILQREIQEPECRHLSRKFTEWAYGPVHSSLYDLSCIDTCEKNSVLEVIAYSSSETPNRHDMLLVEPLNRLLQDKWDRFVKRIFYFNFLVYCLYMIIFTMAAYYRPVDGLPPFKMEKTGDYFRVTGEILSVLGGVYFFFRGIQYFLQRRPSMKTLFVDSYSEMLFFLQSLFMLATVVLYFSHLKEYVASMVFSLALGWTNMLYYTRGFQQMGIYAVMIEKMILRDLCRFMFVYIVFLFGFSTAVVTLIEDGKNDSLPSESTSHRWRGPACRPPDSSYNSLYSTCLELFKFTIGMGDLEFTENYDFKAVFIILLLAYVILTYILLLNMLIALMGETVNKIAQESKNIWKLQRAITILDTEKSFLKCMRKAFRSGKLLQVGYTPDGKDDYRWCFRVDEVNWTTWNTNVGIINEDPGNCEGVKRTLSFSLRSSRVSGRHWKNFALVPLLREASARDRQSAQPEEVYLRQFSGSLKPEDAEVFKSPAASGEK
Protocol: CHO cells that overexpress TRPV1 (CHO-TRPV1) were treated with polygodial (80 μM), P10 ([…]), or P3 (50 μM) and calcium influx was measured. Cells were also pre-treated with the TRPV1 antagonist capsazepine (CPZ; 10 μM) to determine if calcium influx via TRPV1 was inhibited. 3 μM ionomycin was used as a positive control. Fluo-4 Direct Calcium Assay Kit and Sweptfield confocal with Nikon Ti were used to visualize calcium influx and the images were analyzed using ImageJ software.

HeLa cells = test: Calcium imaging, HeLa; format: cell-based, human

T1 sequence (O35433 whole entry): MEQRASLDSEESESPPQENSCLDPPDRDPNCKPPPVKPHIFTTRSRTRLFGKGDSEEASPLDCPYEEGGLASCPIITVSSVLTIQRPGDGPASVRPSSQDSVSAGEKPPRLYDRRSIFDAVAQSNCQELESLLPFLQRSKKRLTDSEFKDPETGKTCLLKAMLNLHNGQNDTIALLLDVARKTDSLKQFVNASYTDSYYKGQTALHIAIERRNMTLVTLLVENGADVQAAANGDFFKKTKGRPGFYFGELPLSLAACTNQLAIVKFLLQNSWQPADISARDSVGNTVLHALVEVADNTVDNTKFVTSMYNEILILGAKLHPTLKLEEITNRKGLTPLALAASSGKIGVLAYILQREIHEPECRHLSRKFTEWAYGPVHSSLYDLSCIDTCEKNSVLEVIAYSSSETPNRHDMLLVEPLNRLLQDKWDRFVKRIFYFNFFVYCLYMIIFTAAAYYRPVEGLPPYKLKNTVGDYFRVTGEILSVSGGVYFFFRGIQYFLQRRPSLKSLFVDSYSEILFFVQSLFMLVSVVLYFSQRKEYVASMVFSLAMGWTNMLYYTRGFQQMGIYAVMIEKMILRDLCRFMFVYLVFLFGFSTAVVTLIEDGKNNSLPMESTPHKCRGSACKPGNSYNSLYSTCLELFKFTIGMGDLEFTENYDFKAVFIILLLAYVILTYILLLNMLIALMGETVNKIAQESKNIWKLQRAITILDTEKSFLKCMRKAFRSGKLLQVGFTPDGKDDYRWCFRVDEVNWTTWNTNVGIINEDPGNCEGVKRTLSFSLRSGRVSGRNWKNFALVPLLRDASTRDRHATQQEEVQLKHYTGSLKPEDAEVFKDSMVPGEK

Question: How did the inhibition at 10 µM ([1]; read-out: inhibition of specific binding of [3H]-resiniferatoxin (RTX)) turn out when `CC1(C)CCC[C@]2(C)[C@@H](C=O)C(C=O)=CC[C@@H]12` [Compound 1, Polygodial] was run?
Answer: The inhibition at 10 µM was 76%.

Question: And the “[Ca2+]i response” value [2]?
Answer: The value was “transient and synchronous [Ca^2+]i increase”.

Question: What about the “morphological effect by videomicroscopy” value [3] of the same compound?
Answer: The value was “strong fixative effects”.

Question: And the “reversal of calcium influx by capsazepine, CHO-TRPV1” value ([4]; CPZ 10 μM pre-treatment)?
Answer: Its value is “reversible by CPZ pre-treatment”.

Question: What about the “TRPV1 activation (calcium influx), CHO-TRPV1” value [4] of the same compound?
Answer: The value was “activates TRPV1”.

Question: What about the “reversal of calcium influx by capsazepine, HeLa” value (HeLa cells; CPZ 10 μM) of the same compound?
Answer: Its value is “CPZ did not fully reverse calcium influx”.

Question: What does the source list for `COC(=O)/C=C/C1=CC[C@H]2C(C)(C)CCC[C@]2(C)[C@H]1C=O` [Compound 5]?
Answer: inhibition of specific binding of [3H]-resiniferatoxin (RTX) ([1]; 10 μM): failed to show any activity; [Ca2+]i response [2]: sustained and asynchronous [Ca^2+] increases; morphological effect by videomicroscopy [3]: inhibited cancer cell proliferation without inducing cell death; TRPV1 activation (calcium influx), CHO-TRPV1 [4]: do not; calcium influx, HeLa (HeLa cells; polygodial 80 μM, P10 4 μM, P3 50 μM): did not induce calcium influx
